Source: patent publication US11000033B2, “Ketone or oxime compound, and herbicide” (NISSAN CHEMICAL CORPORATION, priority 2014, dated 2021)

Columns and labels:
Format in all cases: in vivo
[1] = system: Amaranthus retroflexus; assay: Test Example 5: herbicidal effect by foliage application, plastic box (symbol N); settings: 3 weeks after application
In short: (§1)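 Post-emergence spray; diluvial soil (sterilized), ~1.5 cm seed cover; greenhouse 25–30° C; 14-day-old plants; water-diluted emulsion at predetermined dose; visual score at 3 wk post-treatment.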

[2] = system: Alopecurus myosuroides; assay: Test Example 5: herbicidal effect by foliage application, plastic box (symbol J); settings: 3 weeks after application
In short: as §1

[3] = system: Scirpus juncoides; assay: Test Example 2: herbicidal activity, application during weed generation in submerged conditions (symbol B); settings: Table 23, grade 0-5 by criteria of Test Example 1
In short: (§2)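 Weeds emerging under flooded conditions were treated with compound formulated as an emulsion and diluted with water to the intended herbicide amount, poured onto the surface of 4 cm standing water. Seeds had been co-sown in alluvial soil; plants grew at 25° C. to 30° C. and were assessed after 3 weeks.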

[4] = system: Galium spurium; assay: Test Example 4: herbicidal effect by soil treatment (symbol Q)
In short: (§3)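 Seeds were sown in sterilized diluvial soil, covered with about 1.5 cm of soil, and the soil surface was sprayed with a water-diluted emulsion of the compound at a predetermined rate. Plants grew in a greenhouse at 25° C. to 30° C.; effects were scored visually 3 weeks after application.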

[5] = system: Echinochloa oryzacola Vasing.; assay: Test Example 2: herbicidal activity, application during weed generation in submerged conditions (symbol A); settings: Table 23, grade 0-5 by criteria of Test Example 1
In short: as §2

[6] = system: corn; assay: Test Example 4: effect on crop by soil treatment (symbol c); settings: for c: corn, effect grade on crop: 320 g/ha
In short: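 Sterilized diluvial soil, spot sowing, ~1.5 cm soil cover; greenhouse 25–30° C.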

[7] = system: Lolium multiflorum Lam.; assay: Test Example 5: herbicidal effect by foliage application, plastic box (symbol K); settings: 3 weeks after application
In short: as §1

[8] = system: Galium spurium; assay: Test Example 5: herbicidal effect by foliage application, plastic box (symbol Q); settings: 3 weeks after application
In short: as §1

[9] = system: Monochoria vaginalis; assay: Test Example 2: herbicidal activity, application during weed generation in submerged conditions (symbol C); settings: Table 23, grade 0-5 by criteria of Test Example 1
In short: as §2

[10] = system: beet; assay: Test Example 4: effect on crop by soil treatment (symbol f); settings: for f: beet, effect grade on crop: 320 g/ha
In short: (§4)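 Plants grew in a 25° C. to 30° C. greenhouse after spot-sowing of seeds, including beet, rapeseed, wheat and rice, into sterilized diluvial soil under roughly 1.5 cm of cover soil.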

[11] = system: Echinochloa oryzacola Vasing.; assay: Test Example 1: herbicidal activity, application before weed generation in submerged conditions (symbol A)
In short: (§5)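 Application before weed emergence: an aqueous dilution of the emulsion formulation was poured onto the surface of 4 cm-deep floodwater on the day of sowing. Effect was judged after 3 weeks (greenhouse, 25–30 °C).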

[12] = system: rice plant; assay: Test Example 5: effect on crop by foliage application, plastic box (symbol b); settings: 3 weeks after application
In short: (§6)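 Crop seed is sown alongside grass and broadleaf weed species in spots in sterilized diluvial soil, then covered to a depth of about 1.5 cm. Plants grow in a greenhouse kept at 25° C. to 30° C.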

[13] = system: Monochoria vaginalis; assay: Test Example 1: herbicidal activity, application before weed generation in submerged conditions (symbol C)
In short: as §5

[14] = system: wheat; assay: Test Example 4: effect on crop by soil treatment (symbol e); settings: for e: wheat, effect grade on crop: 320 g/ha
In short: as §4

[15] = system: Setaria viridis; assay: Test Example 4: herbicidal effect by soil treatment (symbol G)
In short: as §3

[16] = system: Abutilon theophrasti; assay: Test Example 4: herbicidal effect by soil treatment (symbol M)
In short: as §3

[17] = system: beet; assay: Test Example 5: effect on crop by foliage application, plastic box (symbol f); settings: 3 weeks after application
In short: as §6

[18] = application herbicide amount 320 g/ha
[19] = application herbicide amount 269 g/ha

Compound	N: Amaranthus retroflexus, herbicidal effect grade ([1]; 320 g/ha)	J: Alopecurus myosuroides, herbicidal effect grade ([2]; 320 g/ha)	Herbicidal effect grade, B: Scirpus juncoides [3, 18]	Herbicidal effect grade, A: Echinochloa oryzacola Vasing. [5, 18]	K: Lolium multiflorum Lam., herbicidal effect grade ([7]; 320 g/ha)	Q: Galium spurium, herbicidal effect grade ([8]; 320 g/ha)	Herbicidal effect grade, C: Monochoria vaginalis [9, 18]	A (Echinochloa oryzacola Vasing.) herbicidal effect grade [11, 18]	b: directly sowed rice plant, effect on crop grade ([12]; 320 g/ha)	C (Monochoria vaginalis) herbicidal effect grade [13, 18]	f: beet, effect on crop grade ([17]; 320 g/ha)	N: Amaranthus retroflexus, herbicidal effect (criteria 0-5) ([1]; 320 g/ha)	J: Alopecurus myosuroides, herbicidal effect (criteria 0-5) ([2]; 320 g/ha)	Q: Galium spurium, herbicidal effect grade ([4]; 320 g/ha)	c: corn, effect grade on crop [6]	K: Lolium multiflorum Lam., herbicidal effect (criteria 0-5) ([7]; 320 g/ha)	Q: Galium spurium, herbicidal effect (criteria 0-5) ([8]; 320 g/ha)	f: beet, effect grade on crop [10]	Herbicidal effect grade, A: Echinochloa oryzacola Vasing. [11, 18]	b: directly sowed rice plant, effect on crop (criteria 0-5) ([12]; 320 g/ha)	other results
CCC(=O)CC1CC(O)=C(c2c(C)cc(Br)cc2OC)C1=O (racemic) [14-002]	0 (Herbicidal ratio of 5% or lower (almost no effect))	5 (Herbicidal ratio of 90% or more (almost completely withered))	0 (Herbicidal ratio of 5% or lower (almost no effect))	5 (Herbicidal ratio of 90% or more (almost completely withered))	5 (Herbicidal ratio of 90% or more (almost completely withered))	0 (Herbicidal ratio of 5% or lower (almost no effect))	0 (Herbicidal ratio of 5% or lower (almost no effect))	4 (Herbicidal ratio of 70% or higher and lower than 90%)	4 (Herbicidal ratio of 70% or higher and lower than 90%)	2 (Herbicidal ratio of 20% or higher and lower than 40%)	0 (Herbicidal ratio of 5% or lower (almost no effect))										Q: Galium spurium, herbicidal effect grade [4, 18]: 0 (Herbicidal ratio of 5% or lower (almost no effect)); c: corn, effect on crop grade [6, 18]: 1 (Herbicidal ratio of 5% or higher and lower than 20%); f: beet, effect on crop grade [10, 18]: 0 (Herbicidal ratio of 5% or lower (almost no effect)); e: wheat, effect on crop grade [14, 18]: 3 (Herbicidal ratio of 40% or higher and lower than 70%); G: Setaria viridis, herbicidal effect grade [15, 18]: 5 (Herbicidal ratio of 90% or more (almost completely withered)); M: Abutilon theophrasti, herbicidal effect grade [16, 18]: 0 (Herbicidal ratio of 5% or lower (almost no effect))
CC(CC1CC(OC(=O)COc2ccccc2)=C(c2c(C)cc(-c3ccc(Cl)cc3)cc2C)C1=O)=NOCC(F)(F)F (mixture of isomers) [9-027]	0 (Herbicidal ratio of 5% or lower (almost no effect))	5 (Herbicidal ratio of 90% or more (almost completely withered))	0 (Herbicidal ratio of 5% or lower (almost no effect))	3 (Herbicidal ratio of 40% or higher and lower than 70%)	5 (Herbicidal ratio of 90% or more (almost completely withered))	3 (Herbicidal ratio of 40% or higher and lower than 70%)	0 (Herbicidal ratio of 5% or lower (almost no effect))	5 (Herbicidal ratio of 90% or more (almost completely withered))	5 (Herbicidal ratio of 90% or more (almost completely withered))	1 (Herbicidal ratio of 5% or higher and lower than 20%)	0 (Herbicidal ratio of 5% or lower (almost no effect))										Herbicidal effect grade, Q: Galium spurium [4, 18]: 0 (Herbicidal ratio of 5% or lower (almost no effect)); Effect on crop grade, c: corn [6, 18]: 0 (Herbicidal ratio of 5% or lower (almost no effect)); Effect on crop grade, f: beet [10, 18]: 0 (Herbicidal ratio of 5% or lower (almost no effect)); Effect on crop grade, e: wheat [14, 18]: 2 (Herbicidal ratio of 20% or higher and lower than 40%); Herbicidal effect grade, G: Setaria viridis [15, 18]: 5 (Herbicidal ratio of 90% or more (almost completely withered)); Herbicidal effect grade, M: Abutilon theophrasti [16, 18]: 0 (Herbicidal ratio of 5% or lower (almost no effect))
CC(=O)C(C)C1CC(O)=C(c2c(C)cc(C)cc2C)C1=O (stereo not shown) [2-005]																					N: Amaranthus retroflexus, herbicidal effect grade ([1]; 269 g/ha): 0 (Herbicidal ratio of 5% or lower (almost no effect)); J: Alopecurus myosuroides, herbicidal effect grade ([2]; 269 g/ha): 5 (Herbicidal ratio of 90% or more (almost completely withered)); Herbicidal effect grade, B: Scirpus juncoides [3, 19]: 0 (Herbicidal ratio of 5% or lower (almost no effect)); Q: Galium spurium, herbicidal effect grade [4, 19]: 0 (Herbicidal ratio of 5% or lower (almost no effect)); Herbicidal effect grade, A: Echinochloa oryzacola Vasing. [5, 19]: 3 (Herbicidal ratio of 40% or higher and lower than 70%); c: corn, effect on crop grade [6, 19]: 0 (Herbicidal ratio of 5% or lower (almost no effect)); K: Lolium multiflorum Lam., herbicidal effect grade ([7]; 269 g/ha): 5 (Herbicidal ratio of 90% or more (almost completely withered)); Q: Galium spurium, herbicidal effect grade ([8]; 269 g/ha): 0 (Herbicidal ratio of 5% or lower (almost no effect)); Herbicidal effect grade, C: Monochoria vaginalis [9, 19]: 0 (Herbicidal ratio of 5% or lower (almost no effect)); f: beet, effect on crop grade [10, 19]: 0 (Herbicidal ratio of 5% or lower (almost no effect)); Herbicidal effect grade, A: Echinochloa oryzacola Vasing. [11, 19]: 3 (Herbicidal ratio of 40% or higher and lower than 70%); b: directly sowed rice plant, effect on crop grade ([12]; 269 g/ha): 5 (Herbicidal ratio of 90% or more (almost completely withered)); Herbicidal effect grade, C: Monochoria vaginalis [13, 19]: 0 (Herbicidal ratio of 5% or lower (almost no effect)); e: wheat, effect on crop grade [14, 19]: 0 (Herbicidal ratio of 5% or lower (almost no effect)); G: Setaria viridis, herbicidal effect grade [15, 19]: 4 (Herbicidal ratio of 70% or higher and lower than 90%); M: Abutilon theophrasti, herbicidal effect grade [16, 19]: 0 (Herbicidal ratio of 5% or lower (almost no effect)); f: beet, effect on crop grade ([17]; 269 g/ha): 2 (Herbicidal ratio of 20% or higher and lower than 40%)
CC(CC1CC(O)=C(c2c(C)cc(C)cc2C)C1=O)=NOCC(C)Br (stereo not shown) [1-135]			4 (Herbicidal ratio of 70% or higher and lower than 90%)	5 (Herbicidal ratio of 90% or more (almost completely withered))			0 (Herbicidal ratio of 5% or lower (almost no effect))					0 (Herbicidal ratio of 5% or lower (almost no effect))	5 (Herbicidal ratio of 90% or more (almost completely withered))	0 (Herbicidal ratio of 5% or lower (almost no effect))	0 (Herbicidal ratio of 5% or lower (almost no effect))	5 (Herbicidal ratio of 90% or more (almost completely withered))	0 (Herbicidal ratio of 5% or lower (almost no effect))	0 (Herbicidal ratio of 5% or lower (almost no effect))	5 (Herbicidal ratio of 90% or more (almost completely withered))	5 (Herbicidal ratio of 90% or more (almost completely withered))	Herbicidal effect grade, C: Monochoria vaginalis [13, 18]: 1 (Herbicidal ratio of 5% or higher and lower than 20%); e: wheat, effect grade on crop [14]: 0 (Herbicidal ratio of 5% or lower (almost no effect)); G: Setaria viridis, herbicidal effect grade ([15]; 320 g/ha): 5 (Herbicidal ratio of 90% or more (almost completely withered)); M: Abutilon theophrasti, herbicidal effect grade ([16]; 320 g/ha): 0 (Herbicidal ratio of 5% or lower (almost no effect)); f: beet, effect on crop (criteria 0-5) ([17]; 320 g/ha): 0 (Herbicidal ratio of 5% or lower (almost no effect))
CCCON=C(C)CC1CC(O)=C(c2c(C)cc(C)cc2C)C1=O (stereo not shown) [1-123]			3 (Herbicidal ratio of 40% or higher and lower than 70%)	5 (Herbicidal ratio of 90% or more (almost completely withered))			2 (Herbicidal ratio of 20% or higher and lower than 40%)					0 (Herbicidal ratio of 5% or lower (almost no effect))	5 (Herbicidal ratio of 90% or more (almost completely withered))	0 (Herbicidal ratio of 5% or lower (almost no effect))	3 (Herbicidal ratio of 40% or higher and lower than 70%)	5 (Herbicidal ratio of 90% or more (almost completely withered))	0 (Herbicidal ratio of 5% or lower (almost no effect))	0 (Herbicidal ratio of 5% or lower (almost no effect))	5 (Herbicidal ratio of 90% or more (almost completely withered))	5 (Herbicidal ratio of 90% or more (almost completely withered))	Herbicidal effect grade, C: Monochoria vaginalis [13, 18]: 3 (Herbicidal ratio of 40% or higher and lower than 70%); e: wheat, effect grade on crop [14]: 0 (Herbicidal ratio of 5% or lower (almost no effect)); G: Setaria viridis, herbicidal effect grade ([15]; 320 g/ha): 5 (Herbicidal ratio of 90% or more (almost completely withered)); M: Abutilon theophrasti, herbicidal effect grade ([16]; 320 g/ha): 3 (Herbicidal ratio of 40% or higher and lower than 70%); f: beet, effect on crop (criteria 0-5) ([17]; 320 g/ha): 0 (Herbicidal ratio of 5% or lower (almost no effect))
